Assays:
lymphoma tumor = test: Doxorubicin delivered to a lymphoma tumor using a porous tube; fluorescence and brightfield microscopy of tumor slices; assay type: in vivo; details: porous tube delivery, three tumor depths
Text: Doxorubicin was delivered to a lymphoma tumor using a porous tube of the method. The tumor was then excised and sectioned. […] Regions of doxorubicin fluorescence and cell death are localized to a zone within the tumor slice, reflecting spatially constrained doxorubicin delivery.

mouse tumor = test: Spatially restricted injection into a mouse tumor with indicator dyes (apoptosis signal imaging); assay type: in vivo; details: excitation 640 nm, emission 720 nm of the dye, versus control
Method: FIG. 14 depicts the use of various indicator dyes according to the method, to monitor spatially restricted delivery of compounds and resulting localized effects on regions of a tumor. A mouse tumor was injected with 1. doxorubicin; and 2. a control. Panel A illustrates excitation at 640 nm and emission at 800 nm of the dye. Panel B illustrates the doxorubicin signal (3.) observed after excitation at 500 nm and emission at 600 nm of doxorubicin. Panel C illustrates an apoptosis signal (4.) observed after excitation at 640 nm and emission at 720 nm of the dye.

[1] = test system: Intracranial medulloblastoma model (conditional Patchedl null) mice; test: Survival of intracranial medulloblastoma model mice; assay type: in vivo, mouse; details: injected daily with 20 mg/kg, monitored for 50 days, versus vehicle only
Method: The results of the in vivo experiment depicted in FIG. 12 predicted that Shh antagonists would have a positive effect on a mouse model of cancer. Intracranial medulloblastoma model (conditional Patchedl null) mice used in this experiment develop medulloblastoma with an early onset and 100% penetrance. Accordingly, mice were injected daily with 20 mg/kg of either A) vehicle plus IPI-926 (n=12); or B) vehicle only (n=11). The mice were monitored for 50 days for survival, and the results depicted in FIG. 13.

Compound	cell death in tumor slices (lymphoma tumor)	apoptosis signal (mouse tumor)	survival [1]
COc1cccc2c1C(=O)c1c(O)c3c(c(O)c1C2=O)C[C@@](O)(C(=O)CO)C[C@@H]3O[C@H]1C[C@H](N)[C@H](O)[C@H](C)O1 [Doxorubicin]	Cell death was observed in a localized area	apoptosis overlaps with the region that received doxorubicin	–
CC1=C2C[C@H]3[C@@H](CC[C@@H]4C[C@H](NS(C)(=O)=O)CC[C@@]43C)[C@@H]2CC[C@@]2(C1)O[C@@H]1C[C@H](C)CN[C@H]1[C@H]2C [IPI-926]	–	–	significantly increased survival

— US20210170052A1, “THERAPEUTIC METHODS AND COMPOSITIONS FOR SOLID DELIVERY” (Presage Biosciences, Inc., priority 2010, published 2021)
